≈ marks a conversion by molar mass, not a printed value. Where two headings read alike, the source gives them in different places. Starred links: 1 amine or outer side, 2 acyl side, 3 side chain; linkers in the order of their positions; H or OH if unused. Non-standard residues stand in square brackets, D forms with d. Residues, ends and D or L forms follow the SMILES beside them. Groups on a side chain read outwards from the residue. *: point of attachment. X3 = O=C(Cc1ccc(F)cc1)Oc1ccc(C[C@H](N[*:1])C(=O)[*:2])cc1[N+](=O)[O-]; Trp(1-(1,1-Me2-allyl)) = C=CC(C)(C)n1cc(C[C@H](N)C(=O)O)c2ccccc21; NMeGlu(4S-Me) = C[C@@H](C[C@@H](C(=O)[*:2])N(C)[*:1])C(=O)[*:3]; X14 = C[C@@H](C[C@@H](C(=O)[*:2])N(C)[*:1])C(=O)NCc1ccc(Cl)cc1; X9 = CSCCC(=O)Oc1ccc(C[C@H](N[*:1])C(=O)[*:2])cc1[N+](=O)[O-]; X1 = C[C@@H](C[C@@H](C(=O)[*:2])N(C)[*:1])C(=O)NCc1ccc(F)cc1; Tyr(3-NO2) = N[C@@H](Cc1ccc(O)c([N+](=O)[O-])c1)C(=O)O; X7 = O=C1O[C@@H](CN*)CN1c1ccc(N2CCOCC2)c(F)c1; Gly(E-crotyl) = C/C=C/C[C@H](N)C(=O)O; NMeL = CN[C@@H](CC(C)C)C(=O)O
Key:
[1] = system: Huvec-12; assay: Cytotoxicity assay (CCK-8); assay type: cell-based; settings: normal human umbilical vein endothelial cell line
[2] = system: HCT116; assay: cells; assay type: cell-based; settings: Homo sapiens, HCT-116; colon cancer cell line
[3] = system: MCF-7; assay: cells; assay type: cell-based; settings: Homo sapiens, MCF7; breast adenocarcinoma cell line
[4] = system: L02; assay: cells; assay type: cell-based; settings: normal human hepatic cell line
[5] = system: A549; assay: Cytotoxicity assay (CCK-8); assay type: cell-based; settings: Homo sapiens, lung cancer cell line
[6] = system: HepG2; assay: cells; assay type: cell-based; settings: Homo sapiens, hepatocellular carcinoma cell line
[7] = system: M. tuberculosis H37Rv; assay: Antitubercular activity assay, broth dilution, auto-luminescent strain; assay type: cell-based, Mycobacterium tuberculosis
[8] = system: HeLa; assay: cells; assay type: cell-based; settings: Homo sapiens, cervical carcinoma cell line
[9] = Day 3rd, read-out: MICs against H37Rv, Day 3rd
[10] = Day 14th, read-out: MICs against H37Rv, Day 14th
[11] = Mycobacterium tuberculosis, H37RV, Day 3rd, read-out: MICs against H37Rv, Day 3rd
[12] = Mycobacterium tuberculosis, H37RV, Day 7th, read-out: MICs against H37Rv, Day 7th
[13] = Mycobacterium tuberculosis, H37RV, Day 14th, read-out: MICs against H37Rv, Day 14th

Structure (SMILES)	IC50 [1] [µM]	IC50 [2] [µM]	IC50 [3] [µM]	IC50 [4] [µM]	IC50 [5] [µM]	IC50 [6] [µM]	MIC ([7]; Mycobacterium tuberculosis, H37RV, read-out: MICs against H37Rv, Day 3rd) [µM]	MIC ([7]; Mycobacterium tuberculosis, H37RV, read-out: MICs against H37Rv, Day 7th) [µM]	MIC ([7]; Mycobacterium tuberculosis, H37RV, read-out: MICs against H37Rv, Day 14th) [µM]	IC50 [8] [µM]	increase of anti-TB activity compared with ilamycin F ([7]; Day 3rd)	MIC [7, 9] [µM]	more potent MIC value than that of 9 and 11 ([7]; Day 14th) [fold]	MIC [7, 10] [µM]	MIC [7, 11] [µM]	MIC [7, 12] [µM]	MIC [7, 13] [µM]
C=CC(C)(C)n1cc(C[C@@H]2NC(=O)[C@H](C/C=C/C)NC(=O)[C@H](CC(C)C)NC(=O)[C@H](C[C@H](C)C(=O)NC[C@H]3CN(c4ccc(N5CCOCC5)c(F)c4)C(=O)O3)N(C)C(=O)[C@H](C)NC(=O)[C@H](Cc3ccc(O)c([N+](=O)[O-])c3)NC(=O)[C@H](CC(C)C)N(C)C2=O)c2ccccc21 [Compound 14, ilamycin NJL14] (cyclo(A[NMeGlu(4S-Me)](X7)L[Gly(E-crotyl)][Trp(1-(1,1-Me2-allyl))][NMeL][Tyr(3-NO2)]))	> 50	> 50	> 50	> 50	> 50	> 50	48.5 (≈ 64 µg/mL)	48.5 (≈ 64 µg/mL)	48.5 (≈ 64 µg/mL)	> 50	–	–	–	–	–	–	–
C=CC(C)(C)n1cc(C[C@@H]2NC(=O)[C@H](C/C=C/C)NC(=O)[C@H](CC(C)C)NC(=O)[C@H](C[C@H](C)C(=O)NCc3ccc(F)cc3)N(C)C(=O)[C@H](C)NC(=O)[C@H](Cc3ccc(O)c([N+](=O)[O-])c3)NC(=O)[C@H](CC(C)C)N(C)C2=O)c2ccccc21 [Compound 10, ilamycin NJL10] (cyclo(A[X1]L[Gly(E-crotyl)][Trp(1-(1,1-Me2-allyl))][NMeL][Tyr(3-NO2)]))	> 50	> 50	> 50	> 50	> 50	> 50	–	–	–	> 50	9–19 fold	1.7 (≈ 1.95 µg/mL)	2	1.7 (≈ 1.95 µg/mL)	1.6 to 3.5 (≈ 1.84 to 4.02 µg/mL)	1.7 (≈ 1.95 µg/mL)	1.6 to 1.7 (≈ 1.84 to 1.95 µg/mL)
C=CC(C)(C)n1cc(C[C@@H]2NC(=O)[C@H](C/C=C/C)NC(=O)[C@H](CC(C)C)NC(=O)[C@H](C[C@H](C)C(=O)N[C@@H](Cc3ccc(O)cc3)C(=O)OC)N(C)C(=O)[C@H](C)NC(=O)[C@H](Cc3ccc(O)c([N+](=O)[O-])c3)NC(=O)[C@H](CC(C)C)N(C)C2=O)c2ccccc21 [Compound 8, ilamycin NJL8] (cyclo(A[NMeGlu(4S-Me)]([Tyr-OMe])L[Gly(E-crotyl)][Trp(1-(1,1-Me2-allyl))][NMeL][Tyr(3-NO2)]))	> 50	> 50	> 50	> 50	> 50	> 50	–	–	–	> 50	–	1.6 (≈ 1.95 µg/mL)	–	1.6 (≈ 1.95 µg/mL)	1.6 to 3.5 (≈ 1.95 to 4.27 µg/mL)	1.6 (≈ 1.95 µg/mL)	1.6 to 1.7 (≈ 1.95 to 2.07 µg/mL)
C=CC(C)(C)n1cc(C[C@@H]2NC(=O)[C@H](C/C=C/C)NC(=O)[C@H](CC(C)C)NC(=O)[C@H](C[C@H](C)C(=O)NCc3ccc(Cl)cc3)N(C)C(=O)[C@H](C)NC(=O)[C@H](Cc3ccc(O)c([N+](=O)[O-])c3)NC(=O)[C@H](CC(C)C)N(C)C2=O)c2ccccc21 [Compound 11, ilamycin NJL11] (cyclo(A[X14]L[Gly(E-crotyl)][Trp(1-(1,1-Me2-allyl))][NMeL][Tyr(3-NO2)]))	> 50	> 50	> 50	> 50	> 50	> 50	–	–	–	> 50	–	–	–	–	3.4 (≈ 3.96 µg/mL)	3.4 (≈ 3.96 µg/mL)	3.4 (≈ 3.96 µg/mL)
C=CC(C)(C)n1cc(C[C@@H]2NC(=O)[C@H](C/C=C/C)NC(=O)[C@H](CC(C)C)NC(=O)[C@H](C[C@H](C)C(=O)O)N(C)C(=O)[C@H](C)NC(=O)[C@H](Cc3ccc(OC(=O)CCSC)c([N+](=O)[O-])c3)NC(=O)[C@H](CC(C)C)N(C)C2=O)c2ccccc21 [Compound 18, ilamycin NJL18] (cyclo(A[NMeGlu(4S-Me)]L[Gly(E-crotyl)][Trp(1-(1,1-Me2-allyl))][NMeL][X9]))	> 50	> 50	> 50	> 50	> 50	> 50	–	–	–	> 50	–	–	–	–	28 (≈ 32 µg/mL)	28 (≈ 32 µg/mL)	28 (≈ 32 µg/mL)
C=CC(C)(C)n1cc(C[C@@H]2NC(=O)[C@H](C/C=C/C)NC(=O)[C@H](CC(C)C)NC(=O)[C@H](C[C@H](C)C(=O)O)N(C)C(=O)[C@H](C)NC(=O)[C@H](Cc3ccc(OC(=O)Cc4ccc(F)cc4)c([N+](=O)[O-])c3)NC(=O)[C@H](CC(C)C)N(C)C2=O)c2ccccc21 [Compound 17, ilamycin NJL17] (cyclo(A[NMeGlu(4S-Me)]L[Gly(E-crotyl)][Trp(1-(1,1-Me2-allyl))][NMeL][X3]))	> 50	> 50	> 50	> 50	> 50	> 50	–	–	–	> 50	–	–	–	–	27.2 (≈ 32.1 µg/mL)	27.2 (≈ 32.1 µg/mL)	27.2 (≈ 32.1 µg/mL)
